Measured values from publication PMC11353420, “Anti-Inflammatory, Cytotoxic, and Genotoxic Effects of Soybean Oligopeptides Conjugated with Mannose” (Foods, 2024).

Experiments:
Hemolysis assay = type: cell-based, human; conditions: human, 5% red blood cell suspension; 800 µg/mL, 5% RBCs, 37 °C, 3 h; read-out: % Hemolysis (n = 5)
Source text: As described by Karinchai et al., human peripheral blood mononuclear cells (PBMCs) and red blood cells (RBCs) were isolated from human blood samples [41]. Human blood samples of healthy subjects obtained from Maharaj Hospital, Chiang Mai, Thailand, were anonymized and kept in a heparinized tube by the laboratory. RBCs were collected and used to determined hemolysis induction by a hemolysis assay. Ficoll-Hypaque solution was used to isolate PBMCs, as described in the manufacturer’s instructions. A certificate of exemption by the Research Ethics Committee of the Faculty of Medicine, Chiang Mai University (No. EXEMPTION 8989/2022), was granted. Consent to participate was not applicable as all data were anonymized. All methods were carried out in accordance with relevant guidelines and regulations.
The hemolytic effect of the oligopeptide and its conjugated forms was determined by hemolysis assay. Briefly, the 5% RBCs suspension was mixed with various concentrations of the samples and further incubated at 37 °C for 3 h. The hemolysis induction by the compounds was measured as described previously. The hemolytic effect of each compound was interpreted using the following guidelines: 0–10% hemolysis is non-hemolysis, 10–25% hemolysis is slight hemolysis induction, and >25% hemolysis is high hemolysis induction.

[1] = SRB cytotoxicity assay, 3T3-L1 mature adipocytes; type: cell-based, murine; conditions: mouse; 3T3-L1 Mature-adipocytes, 48 h, SRB
Method: (§1) The pre-adipocyte 3T3-L1 cell line was differentiated to become mature adipocytes by culturing the cells to 100% confluence in 10% calf serum DMEM (CS medium), as Day 0 in a 96 well-plate. After post-confluence, the cells were incubated with the induction medium as a differentiation initiation medium (DMEM […] 1 μM DEX, 0.5 mM IBMX, 167 nM insulin, and 10% FBS) for 3 days (Days 1–3). After that, cells were cultured in a differentiation medium as an adipogenic differentiation medium (differentiation media: DMEM containing 167 nM insulin and 10% FBS) for 3 days (Days 4–6). Finally, maturation was induced in an induced-lipid accumulation medium (maturation media: DMEM containing 167 nM insulin and 10% FBS) for 6 days (Days 7–12). The mature adipocytes were then used for toxicity testing.
(§2) The cytotoxicity of the oligopeptide and its conjugated forms on HepG2, HEK293, LX-2, and RAW 264.7 cells, pre- and mature 3T3-L1 adipocytes, and hPBMCs was analyzed by a sulforhodamine (SRB) assay to obtain their non-toxic concentration for further experiments and as screening data for their in vitro safety. The cells were plated for 12 h in 96-well plates and then treated with the oligopeptide and its conjugated sugar at a concentration of 0–1000 µg/mL for 48 h. Dimethyl sulfoxide (DMSO) was used as a vehicle control (the untreated control). At the indicated time, the cells were then fixed and subjected to an SRB assay. The absorbance was measured at 510 nm by spectrophotometry (Gen5, BioTek, Winooski, VT, USA), and the cell viability was calculated as the ratio of the treatment versus untreated control. The data are represented as the mean ± standard deviation of three replicates and are expressed relative to the untreated control. The percentage of cell survival was calculated as follows:% cell survival = (Abs_extract/Abs_control) × 100

3T3-L1 Mature-adipocytes = test: SRB cytotoxicity assay, 3T3-L1 mature adipocytes; type: cell-based, murine; conditions: 48 h
Method: as §1, §2

RAW 264.7 cells = test: Cell viability (SRB) of RAW 264.7 in the presence of LPS; type: cell-based, murine; conditions: up to 400 µg/mL, LPS 1 µg/mL, 24 h
[2] = SRB cytotoxicity assay, HepG2; type: cell-based, human; conditions: human, HepG2 cells; HepG2, 48 h, SRB
Source text: (§3) HEK293 (Human embryonic kidney cell line), HepG2 (Human liver carcinoma cell line), LX-2 (Human hepatic stellate cell line), and 3T3-L1 (Murine preadipocyte cell line) cells were obtained from the American Type Culture Collection (ATCC), Bethesda, MD, USA.

[3] = test system: HepG2 (Human liver carcinoma cell line); test: SRB cytotoxicity assay, HepG2; type: cell-based
Source text: as §3

[4] = SRB cytotoxicity assay, LX-2; type: cell-based, human; conditions: human, LX-2 cells; LX-2, 48 h, SRB
Source text: as §3

[5] = test system: LX-2 (Human hepatic stellate cell line); test: SRB cytotoxicity assay, LX-2; type: cell-based
Source text: as §3

IL-6 = IL-6 secretion by ELISA in LPS-treated RAW 264.7; type: cell-based, murine; conditions: 100, 200, 400 µg/mL, LPS 1 µg/mL 24 h
Method: RAW 264.7 macrophage cells were pretreated with various concentrations of the oligopeptide and its conjugated forms (100, 200, 400 µg/mL) for an hour and then incubated with LPS (1 µg/mL) for further 24 h at 37 °C in a 5% CO2 humidified atmosphere. Then, a sandwich Enzyme Link Immuno-Sorbent Assay was carried out in accordance with the manufacturer’s protocols (BioLegend ELISA MAXTM Deluxe Set, San Diego, CA, USA) to measure TNF-α or IL-6 protein levels in the condition medium.

iNOS = iNOS protein level by immunoblotting in LPS-treated RAW 264.7; type: cell-based, murine; conditions: 100, 200, 400 µg/mL, LPS 1 µg/mL 24 h
Method: RAW 264.7 macrophage cells were pretreated with various concentrations of the oligopeptide and its conjugated forms (100, 200, 400 µg/mL) for an hour and then incubated with LPS (1 µg/mL) for a further 24 h (at 37 °C in a 5% CO2 humidified atmosphere). The cells were then collected to investigate the iNOS and COX-2 protein levels. Cell lysate was prepared to obtain the protein samples. The samples were subjected to 10% sodium dodecyl sulfate polyacrylamide gel electrophoresis (SDS-PAGE). The separated proteins were electrically transferred to a nitrocellulose membrane. The target proteins were probed with specific antibodies, including anti-COX-2 antibody (Cell signaling, Danvers, MA, USA), anti-iNOS antibody (Merck, Rahway, NJ, USA), and anti-β-actin antibody (Sigma, St. Louis, MO, USA). Protein detection was performed using a chemiluminescence reagent (Bio-Rad Laboratories, Watford, UK).

[6] = SRB cytotoxicity assay, HEK293; type: cell-based, human; conditions: human, HEK293 cells; HEK293, 48 h, SRB
Source text: as §3

[7] = test system: HEK293 (Human embryonic kidney cell line); test: SRB cytotoxicity assay, HEK293; type: cell-based
Source text: as §3

For `OC[C@H]1OC(O)[C@@H](O)[C@@H](O)[C@@H]1O` (stereo partly drawn) [Man, D-mannose], the hemolysis at 3 h, 800 µg/mL (Hemolysis assay) was 1.84 ± 0.42%, the IC20 at 48 h [1] was greater than 1000 µg/mL and the IC50 (3T3-L1 Mature-adipocytes; Mus musculus, 3T3-L1 Mature-adipocytes, SRB, read-out: IC50) was greater than 1000 µg/mL. For the same compound, the toxicity to cells (3T3-L1 Mature-adipocytes; mature-3T3-L1, up to 1000 µg/mL) was “not toxic”, the “cell viability of RAW 264.7 cells in the presence of LPS” value (RAW 264.7 cells) was “did not change” and the IC20 at 48 h [2] was greater than 1000 µg/mL. The toxicity to cells ([3]; HepG2, up to 1000 µg/mL, 48 h) was “not toxic”, the IC50 ([3]; Homo sapiens, HepG2, 48 h, SRB, read-out: IC50) was greater than 1000 µg/mL and the IC20 at 48 h [4] was greater than 1000 µg/mL. The IC50 ([5]; Homo sapiens, LX-2, 48 h, SRB, read-out: IC50) was greater than 1000 µg/mL, the toxicity to cells ([5]; LX-2, up to 1000 µg/mL, 48 h) was “not toxic” and the “effect on level of IL-6” value (IL-6) was “did not alter”. For the same compound, the “effect on iNOS protein level” value (iNOS) was “did not affect”, the IC20 at 48 h [6] was greater than 1000 µg/mL and the toxicity to cells ([7]; HEK293, up to 1000 µg/mL, 48 h) was “not toxic”. It also gave an IC50 ([7]; Homo sapiens, HEK293, 48 h, SRB, read-out: IC50) greater than 1000 µg/mL.
